Here are results for 27 compounds from patent publication US10717731B2, “Nitrogen-containing aromatic heterocyclic compound” (MITSUBISHI TANABE PHARMA CORPORATION, priority 2015, dated 2020).

For this test, the target named is T1, human CYP11B2 (Homo sapiens, UniProt P19099).
T1 construct: expressed in transfected cells; mitochondrial fraction
T1 sequence (P19099 25-503): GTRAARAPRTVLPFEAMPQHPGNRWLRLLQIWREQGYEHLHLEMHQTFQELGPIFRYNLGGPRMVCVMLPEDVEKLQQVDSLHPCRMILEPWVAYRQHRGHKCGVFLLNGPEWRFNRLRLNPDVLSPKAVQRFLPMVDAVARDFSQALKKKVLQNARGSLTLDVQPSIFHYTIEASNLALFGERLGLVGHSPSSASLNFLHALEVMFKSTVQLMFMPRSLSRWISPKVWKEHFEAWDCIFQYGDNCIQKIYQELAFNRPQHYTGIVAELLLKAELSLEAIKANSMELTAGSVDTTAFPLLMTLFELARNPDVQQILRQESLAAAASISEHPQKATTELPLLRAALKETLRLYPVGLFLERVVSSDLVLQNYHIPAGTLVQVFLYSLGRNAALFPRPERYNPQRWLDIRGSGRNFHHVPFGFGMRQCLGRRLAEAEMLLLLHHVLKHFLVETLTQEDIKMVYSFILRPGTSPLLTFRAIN
Nature of the test: Inhibitory effect on hCYP11B2: aldosterone production in mitochondrial fraction of V79 cells stably expressing human CYP11B2, HTRF. The settings on record: 0.5 μmol/L deoxycorticosterone, 150 μmol/L NADPH, 1.5-2 hours at room temperature. The format is biochemical. The method, then:
Experimental Example 1 (Inhibitory Effect on hCYP11B2)
The pcDNA3.1-human CYP11B2 plasmid was transfected into a Chinese hamster lung fibroblast V79 cell line to produce a cell line stably expressing human CYP11B2 gene.
The cells were cultured and grown in the Dulbecco's modified Eagle's/Ham's medium supplemented with 10% fetal bovine serum and 1% G418 disulfate solution under the environment of 37° C., 95% air, and 5% CO2, and the grown cells were harvested.
Then, the cells were fractionated to obtain mitochondria by reference to a method described in Chabre et al. JCE & M 85 (11) 4060-68, 2000. In particular, the cells suspended in a 5 mmol/L Tris-HCl buffer (pH 7.4) containing 250 mmol/L sucrose were homogenized in a Teflon (Registered Trademark) Potter Elvehjem homogenizer, and then the suspension was centrifuged (800×g, 15 min.). The supernatant was separated and again centrifuged (10000×g, 15 min.) to obtain a pellet (mitochondrial fraction).
The mitochondrial fraction diluted with a buffer containing 10 mmol/L KH2PO4, 10 mmol/L Tris, 20 mmol/L KCl, 25 mmol/L sucrose, 5 mmol/L MgCl2, and 0.05% bovine serum albumin was dispensed to a 96-well plate. 0.5 μmol/L Deoxycorticosterone, 150 μmol/L NADPH and a compound of each concentration were added to each well, and incubated for 1.5-2 hours at room temperature to produce aldosterone. An amount of the produced aldosterone in the incubated solution was determined by using HTRF (Homogeneous Time Resolved Fluorescence) method.
IC50 (nmol/L) was calculated by analyzing the aldosterone production inhibition rate (%) of each concentration of compounds by non-linear regression to a logistic curve.
`O=C(CN1CCN(c2cc(-c3ccc(F)cc3)cnn2)CC1)N[C@@H]1CCNC[C@H]1F` (single isomer, unassigned) [Example 89a] gave an IC50 of 7.4 nM. As for `O=C(CN1CCN(c2cc(-c3ccc(Cl)cc3)cnn2)CC1)NC1CCNCC1O` (single isomer, unassigned) [Example 90a], the IC50 came out at 33 nM.

The compound `O=C(CN1CCN(c2cc(-c3ccc(Cl)cc3)cnn2)CC1)NC1CCNCC1O` (single isomer, unassigned) [Example 90b] registered an IC50 of 76 nM. For the compound `CN1CCC(NC(=O)CN2CCN(c3cc(-c4ccc(Cl)cc4)cnn3)CC2)CC1=O` (single isomer, unassigned) [Example 91a], inhibition was half-maximal at 30 nM (IC50). Next, `CN1CCC(NC(=O)CN2CCN(c3cc(-c4ccc(Cl)cc4)cnn3)CC2)CC1=O` (single isomer, unassigned) [Example 91b]: 12 nM; `O=C(CN1CCN(c2cncc(-c3ccc(F)cc3)c2)CC1)NC1CCn2ccnc2C1` (stereo not drawn) [Example 1]: 6.6 nM; `CC(C)(C)OC(=O)N1C2COCC1CC(NC(=O)CN1CCN(c3cncc(-c4ccc(F)cc4)c3)CC1)C2` (stereo not drawn) [Example 5]: 14 nM. In the case of `CN(C)[C@H]1CC[C@@H](NC(=O)CN2CCN(c3cncc(-c4ccc(F)cc4)c3)CC2)CC1` [Example 6], the IC50 was found to be 13 nM. The figure for `Cc1ccccc1-c1cncc(N2CCN(CC(=O)Nc3cnn(C)c3)CC2)c1` [Example 7] is 4.8 nM; for `Cc1ccccc1-c1cncc(N2CCN(CC(=O)N[C@H](CO)C(C)C)CC2)c1` [Example 8] it is 4.9 nM; for `Cc1ccc(-c2cncc(N3CCN(CC(=O)NC4CC5COCC(C4)C5O)CC3)c2)cc1` (stereo not drawn) [Example 10] it is 9.2 nM.

Turning to `CC(C)NC(=O)CN1CCN(c2cncc(-c3ccc(C#N)nc3)c2)CC1` [Example 11], the IC50 worked out at 18 nM.

`CC(C)NC(=O)CN1CCN(c2cncc(-c3ccc4c(c3)CCO4)c2)CC1` [Example 13] registered an IC50 of 11 nM. Next, `CC(C)NC(=O)CN1CCN(c2cncc(-c3ccc4cn[nH]c4c3)c2)CC1` [Example 14]: 30 nM; `CC(C)NC(=O)CN1CCN(c2cncc(-c3ccc4cnn(C)c4c3)c2)CC1` [Example 15]: 18 nM; `CC1CC=C(c2cncc(N3CCN(CC(=O)NC(C)C)CC3)c2)CC1` (stereo not drawn) [Example 16]: 6.9 nM. Next, `CC1CCC(c2cncc(N3CCN(CC(=O)NC(C)C)CC3)c2)CC1` (stereo not drawn) [Example 17]: 17 nM; `C[C@H](O)CNC(=O)CN1CCN(c2cncc(-c3ccc4cnn(C)c4c3)n2)CC1` [Example 18]: 14 nM. Next, `CO[C@H]1CC[C@@H](NC(=O)CN2CCN(c3cncc(-c4ccc(C)cc4)n3)CC2)CC1` [Example 20]: 4.5 nM. The compound `Cc1ccc(-c2cncc(N3CCN(CC(=O)NCC4(O)CCN(C)CC4)CC3)n2)cc1` [Example 21] gave an IC50 of 28 nM. Turning to `Cn1ncc2ccc(-c3cncc(N4CCN(CC(=O)N[C@H]5CC[C@@H](CO)CC5)CC4)n3)cc21` [Example 22], 19 nM corresponded to half-maximal inhibition (IC50). Next, `CO[C@H]1CC[C@@H](NC(=O)CN2CCN(c3cncc(-c4ccc5cnn(C)c5c4)n3)CC2)CC1` [Example 26]: 14 nM. As for `CN1CCC(NC(=O)CN2CCN(c3cncc(-c4ccc5cnn(C)c5c4)n3)CC2)CC1` [Example 27], the IC50 stood at 42 nM. For the compound `CO[C@H]1CC[C@@H](NC(=O)CN2CCN(c3cncc(-c4ccc5c(cnn5C)c4)n3)CC2)CC1` [Example 28], the IC50 worked out at 10 nM.

`Cn1ncc2cc(-c3cncc(N4CCN(CC(=O)N[C@H]5CC[C@@H](N(C)C)CC5)CC4)n3)ccc21` [Example 29] displayed an IC50 of 37 nM. `Cn1ncc2cc(-c3cncc(N4CCN(CC(=O)N[C@H]5CC[C@@H](C(C)(C)O)CC5)CC4)n3)ccc21` [Example 30] gave an IC50 of 13 nM. The figure for `CN(C)[C@H]1CC[C@H](NC(=O)CN2CCN(c3cncc(-c4ccc(F)cc4)n3)CC2)CC1` [Example 31] is 5.1 nM.

The IC50 is the point on the concentration scale where inhibition reaches its midpoint. The low end stands for higher potency, the high end for lower potency.
